Measurements as given in ChEMBL document CHEMBL5512689, “Discovery of Clinical Candidate PF-06648671: A Potent γ-Secretase Modulator for the Treatment of Alzheimer's Disease” (J Med Chem, 2024).
In brackets after ≈: the same amount, converted by molar mass. One block for each molecule: values may come before it.

Assays:
[1] = Drug penetration in rat assessed as Unbound brain-to-plasma concentration ratio; assay type: ADME, cell-free; details: read-out: K(p,uu,brain)
[2] = Lipophilicity, log D of the compound; assay type: physicochemical; details: octanol/water
[3] = Lipophilicity, log D of the compound by shake flask method; assay type: physicochemical; details: octanol/water
[4] = Kinetic solubility of compound at pH 6.5; assay type: physicochemical; details: buffer, read-out: Kinetic_solubility
[5] = Apparent permeability across apical to basolateral side in dog RRCK cells; assay type: ADME, cell-based, Canis lupus familiaris, MDCKII-LE; details: MDCK
[6] = Volume of distribution at steady state in rat at 1 mg/kg, iv; assay type: ADME, organism-based; details: in vivo, read-out: Vdss
[7] = Volume of distribution at steady state in dog at 1 mg/kg, iv; assay type: ADME, organism-based, Canis lupus familiaris; details: in vivo, read-out: Vdss
[8] = Volume of distribution at steady state in human at 1 mg/kg, iv; assay type: ADME, organism-based; details: in vivo, read-out: Vdss
[9] = Oral bioavailability in rat at 5 mg/kg; assay type: ADME, organism-based; details: in vivo
[10] = Oral bioavailability in dog at 5 mg/kg; assay type: ADME, organism-based, Canis lupus familiaris; details: in vivo
[11] = Oral bioavailability in human at 5 mg/kg; assay type: ADME, organism-based; details: in vivo
[12] = Ratio of drug concentration in brain to plasma in rat at 10 mg/kg, po; assay type: ADME, organism-based; details: read-out: BPR
[13] = Drug penetration in human assessed as Unbound brain-to-plasma concentration ratio; assay type: ADME, cell-free; details: read-out: K(p,uu,brain)
[14] = Drug penetration in Non human primate assessed as unbound brain-to-plasma concentration ratio; assay type: ADME, cell-free; details: primates, read-out: K(p,uu,brain)

Kp uu [1]: 0.5
SMILES: Cc1cn(-c2ccc3n(c2=O)CCN([C@@H](C)[C@@H]2CC[C@H](c4ccc(C(F)(F)F)c(F)c4F)O2)C3=O)cn1

Kp uu [1]: 0.5
Kp uu [14]: 1
SMILES: Cc1cn(-c2ccc3n(c2=O)CCN([C@@H](C)[C@@H]2CC[C@H](c4ccc(Cl)cc4C(F)(F)F)O2)C3=O)cn1

Further lines, the molecule ahead of its results:

SMILES: Cc1cn(-c2ccc3n(c2=O)CCN([C@@H](C)[C@@H]2CC[C@H](c4cc(F)c(Cl)cc4C(F)(F)F)O2)C3=O)cn1
Kp uu [1]: 0.7
logD [2]: 5
logD [3]: 4.2
solubility kinetic [4]: 44.8 µM (≈ 24.1 µg/mL)
Papp A→B [5]: 5.8 ×10⁻⁶ cm/s
Vd [6]: 0.8 L/kg
Vd [7]: 0.7 L/kg
Vd [8]: 1.3 L/kg
bioavailability [9]: 67%
bioavailability [10]: 88%
bioavailability [11]: 60%
Kp [12]: 1.5
Kp uu [13]: 1

SMILES: Cc1cn(-c2ccc3n(c2=O)CCN([C@@H](C)[C@@H]2CC[C@H](c4cc(F)c(C(F)(F)F)c(F)c4)O2)C3=O)cn1
Kp uu [1]: 0.08

SMILES: Cc1cn(-c2ccc3n(c2=O)CCN([C@@H](C)[C@@H]2CC[C@H](c4ccc(C(F)(F)F)cc4)O2)C3=O)cn1
Kp uu [1]: 0.5
